Reference: paper PMC10606834, “Is the Neuropeptide PEN a Ligand of GPR83?” (International Journal of Molecular Sciences, 2023)

How the values were obtained:
[1] = test system: GPR83 and deletion variant GPR83del (HEK293 clones; wild-type HEK293 as comparison); test: Intracellular calcium mobilization, HEK293 cells; format: cell-based, human
Experimental: (§1) As activation of many GPCRs is coupled to calcium mobilization from intracellular stores, GPR83 was probed for ligand-dependent calcium release. Wild-type HEK293 cells and HEK293 clones overexpressing either full-length GPR83 or the N-terminal deletion variant GPR83del were exposed to buffer or one of two independent synthesis batches (PEN #1 and PEN #2) of the neuropeptide PEN, while calcium indicator fluorescence was recorded. […] Calcium release was also tested in a second cell line, osteosarcoma U2OS cells, using various stably expressing clones. […] Therefore, HEK293 cells transfected with Gα16 were employed to investigate a potential GPR83-dependent calcium mobilization with PEN. […] A number of GPCRs show ligand-independent basal calcium activity. However, in an experiment comparing basal calcium levels in wild-type HEK293 cells and in HEK293 clones overexpressing four different variants of GPR83, they were not found to be different (Figure 2D).
(§2) Figure 2 Investigation of ligand-dependent and ligand-independent intracellular calcium mobilization. (A) Wild-type HEK293 cells and HEK293 cell clones overexpressing either GPR83 or the deletion variant GPR83del were incubated with either buffer or the specified ligand (10 µM PEN or co mix = 100 µM carbachol, 100 µM ATP, 40 µM dimaprit, or 50 µM ionomycin). (B) Calcium indicator fluorescence intensity traces over 60 s of various U2OS cell clones overexpressing untagged or HA-tagged GPR83 or the deletion variant GPR83del before and after the addition of buffer or ligand (co mix as in (A) or 50 µM ionomycin or 10 µM PEN). […]
(§3) Cells were seeded at 50,000 cells/well in a poly-D-lysine coated 96-well black well/clear bottom plate (BD Falcon, Franklin Lakes, NJ, USA) and cultured overnight. […] Fluorescence was recorded with the fluorescence imaging plate reader CellLux (Perkin Elmer, Waltham, MA, USA) simultaneously in all wells at an excitation wavelength of 488 nm and emission wavelength of 510 nm in 1.5 s intervals over a period of 4 min. Fluorescence data were generated in duplicate, and experiments were repeated at least two times.

[2] = test system: HEK293 cells; conditions: some batches of HEK293 cells; ref [10]; cited from earlier work
Description: (§4) While the earlier study employed CHO cells from Cricetulus griseus and Neuro2A cells from Mus musculus overexpressing human GPR83 [10], this study used human HEK293 and U2OS c ...

[3] = test system: GPR83 (CHO and Neuro2A cells); conditions: CHO and Neuro2A cells overexpressing human GPR83; ref [10]; cited from earlier work
Description: as §4

[4] = test system: GPR83 and GPR83del with Gα16 (HEK293); test: Intracellular calcium mobilization, Gα16-transfected HEK293 cells; format: cell-based, human; conditions: 10 µM PEN, 100 µM carbachol, 100 µM ATP, Fluo4-AM fluorescence, duplicate, repeated at least two times
Experimental: as §1, §2, §3

[5] = test system: ERK1/2 phosphorylation in HEK293 cells overexpressing GPR83 or GPR83del; test: ERK1/2 phosphorylation (immunoblot), GPR83 cells; format: cell-based, human
Description: Apart from G protein-mediated second messenger signaling via Ca^2+ and cAMP, GPCR stimulation may also lead to activation of β-arrestin and phosphorylation of extracellular signal-regulated kinases 1/2 (ERK1/2). Immunoblot analysis was employed to investigate ligand-dependent phosphorylation of ERK1/2 in HEK293 cells overexpressing GPR83 or the deletion variant GPR83del as well as in wild-type HEK293 cells.
Figure 4 Ligand-dependent phosphorylation of ERK1/2 and β-arrestin (TANGO) assay. (A) Immunoblot detection of phosphorylated (upper blot) and total (lower blot) ERK1/2 in lysates of HEK293 wild-type cells and in HEK293 cells overexpressing GPR83 or GPR83del. (B) Quantification (mean ± SD of n = 2 independent experiments) of chemiluminescent readout of the immunoblots shown in (A). (C) TANGO assay for ligand-induced β-arrestin activity in HTLA cells overexpressing GPR83 (relative light units, RLU). (D) TANGO assay for ligand-induced β-arrestin activity in HTLA cells overexpressing bradykinin receptor BDKBR2.
4.7. ERK1/2 Phosphorylation Assay
Effects of GPCR ligands on MAPK signaling were assessed with Western blot analysis of lysates from stimulated cells. The ERK1/2 activation assay was performed as described before. Briefly, 50,000 cells per well were seeded onto adherent 6-well plates and cultured until cells were 80% confluent. After incubation with ligands (10 µM PEN #1 and 100 ng/mL EGF or 200 nM PMA in 0.1% FCS/DMEM) for 15 min, cells were lysed using 200 µL/well cell lysis buffer (100 mM Tris-HCl pH 8.8, 1% SDS) and protease inhibitors (cOmplete, Roche, Basel, Switzerland) on ice for one hour. Immunolabeling was realized using the rabbit monoclonal primary antibody anti-phospho-ERK1/2 Thr^202/Tyr^204 (#4370, Cell Signaling Technologies, Danvers, MA, USA, 1:2000), or anti-total ERK1/2 (#05-1152; Millipore, Burlington, VT, USA; 1:2000), respectively. Blots were analyzed using densitometric quantification using Image Lab Software v4.1 (Bio-Rad).

[6] = test system: GPR83 with chimeric Gα16/i3 protein (CHO cells); conditions: CHO cells transfected with GPR83 and chimeric Gα16/i3 protein; ref [10]; cited from earlier work
Description: In the present study, evidence for a molecular interaction of the neuropeptide PEN with the cell surface receptor GPR83 could not be found.

## AADHDVGSELPPEGVLGALLRV [PEN, batch #1 synthesized, batch #2 purchased from Phoenix Pharmaceuticals]
[1]; 10 µM PEN, co mix = 100 µM carbachol, 100 µM ATP, 40 µM dimaprit, 50 µM ionomycin, HEK293 wild-type, GPR83 or GPR83del clones, Fluo4-AM fluorescence, compared with buffer, duplicate, repeated at least two times
  calcium signal: PEN did not
[1]; two synthesis batches of PEN, confirmed in HEK293 and U2OS cells, full-length or truncated GPR83 (Figure 2A–C)
  Ca2+ signal above background: none of two synthesis batches of PEN from different sources was found to yield a signal above background
[2]
  response of HEK293 cells: had not responded to PEN
[3]
  GPR83-mediated cAMP signaling: Modification of GPR83-mediated cAMP signaling by PEN has been previously reported
[4]
  calcium signal: PEN did not
[5]; 10 µM PEN #1, 100 ng/mL EGF or 200 nM PMA, 15 min, HEK293 overexpressing GPR83 or GPR83del as well as wild-type HEK293, n = 2 independent experiments
  phosphorylation of ERK1/2: substantially induced phosphorylation of ERK1/2
[5]; 10 µM PEN #1, 15 min, n = 2
  phosphorylation of ERK1/2, GPR83 or GPR83del cells versus wild-type: equally strong ERK1/2 phosphorylation in wild-type HEK293 cells as well as in HEK293 cells overexpressing GPR83 or GPR83del
[6]
  intracellular Ca2+ mobilization: PEN-induced intracellular Ca^2+ mobilization
